Test results published in patent US20240025919A1, “AZA-TETRACYCLIC OXAZEPINE COMPOUNDS AND USES THEREOF” (Genentech, Inc., priority 2022, published 2024).

How the values were obtained:
KRAS G12D = KRAS G12D (Homo sapiens (Human), UniProt P01116, G12D); assay: KRAS G12D LoEnz Biochemical Assay, BODIPY-GDP Exchange TR-FRET (SOS1-mediated nucleotide exchange); details: read-out: KRas (G12D) GDP HTRF IC50
Procedure: Example 500: KRAS G12D LoEnz Biochemical Assay, BODIPY-GDP Exchange TR-FRET. Biochemical compound potencies are assessed by evaluating inhibition of SOS1I-mediated nucleotide exchange in KRAS G121D. In this assay, the SOS1-promoted exchange of fluorescently-labeled GDP (BOPIDY-GDP) is monitored by time-resolved fluorescence resonance energy transfer (TR-FRET). Compounds solubilized in DMS0 are dispensed as concentration series into 384-well white assay plates. A preformed complex of biotin-tagged recombinant human KRAS (0.06 nM mutant G1 2D) and 0.06 nM terbium-labeled streptavidin (CisBIO) prepared in 10 uL/well assay buffer (20 mM HEPES, pH 7.5, 50 mM NaCl, 10 mMMMgCl2, 0.0100 Tween-20 and 1 mM dithiothreitol) is added and allowed to incubate for 10-minutes at room temperature. The reaction is initiated with the addition of 5 uL 300 nM recombinant human SOS1 and 300 nM BODIPY-GDP in assay buffer. After a 120-minute incubation, the fluorescence is measured with excitation at 337 nm and emission at 490 and 520 nm. The TR-FRET ratio is determined as the fluorescence at 520 nm divided by the fluorescence at 490 nm multiplied by 10,000. The results are normalized to percent inhibition based on control samples: DMSO (0% inhibition) and control compound at a concentration that inhibits completely (100% inhibition). The normalized TR-FRET results are plotted against compound concentration, and the data are fit to a 4-parameter Hill equation to determine the IC50 values.

KRAS WT = KRAS WT (Homo sapiens (Human), UniProt P01116); assay: KRAS WT Biochemical Assay, BODIPY-GDP Exchange TR-FRET (Example 501; 3 nM KRAS WT, 3 nM SOS1, 60-minute incubation); details: read-out: KRas(wt) GDP HTRF IC50
Procedure: Example 501: KRAS WT Biochemical Assay, BODIPY-GDP Exchange TR-FRET. Biochemical compound potencies are assessed by evaluating inhibition of SOS1-mediated nucleotide exchange in KRAS WT. In this assay, the SOS1-promoted exchange of fluorescently-labeled GDP (BOPIDY-GDP) is monitored by time-resolved fluorescence resonance energy transfer (TR-FRET). Compounds solubilized in DMSO are dispensed as concentration series into 384-well white assay plates, and 5 uL assay buffer (20 mM HEPES, pH 7.5, 50 mM NaCl, 10 mM MgCl2, 0.01% Tween-20 and 1 mM dithiothreitol) is added just prior to the start of the assay. A preformed complex of 3 nM biotin-tagged recombinant human KRAS WT and 0.3 nM terbium-labeled streptavidin (CisBIO) prepared in 5 uL/well assay buffer is added and allowed to incubate for 10-minutes at room temperature. The reaction is initiated with the addition of 5 uL 3 nM recombinant human SOS1 and 300 nM BODIPY-GDP in assay buffer. After a 60-minute incubation, the fluorescence is measured with excitation at 337 nm and emission at 490 and 520 nm. The TR-FRET ratio is determined as the fluorescence at 520 nm divided by the fluorescence at 490 nm multiplied by 10,000. The results are normalized to percent inhibition based on control samples: DMSO (0% inhibition) and control compound at a concentration that inhibits completely (100% inhibition). The normalized TR-FRET results are plotted against compound concentration, and the data are fit to a 4-parameter Hill equation to determine the IC50 values.

Sequence of KRAS WT (P01116-2 other isoform, or with tags, fused parts or gaps): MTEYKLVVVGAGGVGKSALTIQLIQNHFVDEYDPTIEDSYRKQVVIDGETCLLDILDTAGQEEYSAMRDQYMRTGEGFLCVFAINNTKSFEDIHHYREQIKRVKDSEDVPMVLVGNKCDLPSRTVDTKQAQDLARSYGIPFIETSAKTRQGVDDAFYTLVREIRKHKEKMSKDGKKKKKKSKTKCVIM
Sequence of KRAS G12D (P01116-2 other isoform, or with tags, fused parts or gaps G12D): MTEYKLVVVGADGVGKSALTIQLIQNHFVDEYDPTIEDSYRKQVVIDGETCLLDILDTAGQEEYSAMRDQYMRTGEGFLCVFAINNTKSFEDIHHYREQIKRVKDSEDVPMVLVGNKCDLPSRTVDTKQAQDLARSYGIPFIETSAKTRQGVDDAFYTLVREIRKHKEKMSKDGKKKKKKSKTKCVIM

Structure (SMILES)	IC50 (KRAS G12D)	IC50 (KRAS WT)
Cc1c(F)c(N)cc(-c2nc3c4c(nc(OCC56CCN5C[C@H](F)C6)nc4c2F)N2C[C@H]4CC[C@H](N4)[C@H]2[C@H](C)O3)c1C(F)(F)F (stereo partly drawn) [Compound 29, 2-fluoro-5-((5S,5aS,6S,9R)-1-fluoro-12-(((3R)-3-fluoro-1-azabicyclo[3.2.0]heptan-5-yl)methoxy)-5-methyl-5a,6,7,8,9,10-hexahydro-5H-4-oxa-3,10a,11,13,14-pentaaza-6,9-methanonaphtho[1,8-ab]heptalen-2-yl)-3-methyl-4-(trifluoromethyl)aniline]	0.086 nM	2.93 nM
C[C@@H]1Oc2nc(-c3cncc4ccccc34)c(F)c3nc(OC[C@@]45CCCN4CC4(CC4(F)F)C5)nc(c23)N2C[C@H]3CC[C@H](N3)[C@@H]12 (stereo partly drawn) [Compound 30, (5S,5aS,6S,9R)-12-(((7a′S)-2,2-difluorodihydro-1′H,3′H-spiro[cyclopropane-1,2′-pyrrolizin]-7a′(5′H)-yl)methoxy)-1-fluoro-2-(isoquinolin-4-yl)-5-methyl-5a,6,7,8,9,10-hexahydro-5H-4-oxa-3,10a,11,13,14-pentaaza-6,9-methanonaphtho[1,8-ab]heptalene]	19.4 nM	598 nM
Cc1c(F)c(N)cc(-c2nc3c4c(nc(OC[C@@]56CCCN5C[C@H](OCc5ccc(-c7ccccc7C#N)cc5)C6)nc4c2F)N2C[C@H]4CC[C@H](N4)[C@H]2[C@H](C)O3)c1C(F)(F)F [Compound 32, 4′-((((2R,7aS)-7a-((((5S,5aS,6S,9R)-2-(5-amino-4-fluoro-3-methyl-2-(trifluoromethyl)phenyl)-1-fluoro-5-methyl-5a,6,7,8,9,10-hexahydro-5H-4-oxa-3,10a,11,13,14-pentaaza-6,9-methanonaphtho[1,8-ab]heptalen-12-yl)oxy)methyl)hexahydro-1H-pyrrolizin-2-yl)oxy)methyl)-[1,1′-biphenyl]-2-carbonitrile]	0.2 nM	0.579 nM
C[C@@H]1Oc2nc(-c3c(C(F)(F)F)ccc(N)c3F)c(F)c3nc(OC[C@@]45CCCN4C[C@H](F)C5)nc(c23)N2C[C@H]3CC[C@H](N3)[C@@H]12 [Compound 35, 2-fluoro-3-((5S,5aS,6S,9R)-1-fluoro-12-(((2R,7aS)-2-fluorotetrahydro-1H-pyrrolizin-7a(5H)-yl)methoxy)-5-methyl-5a,6,7,8,9,10-hexahydro-5H-4-oxa-3,10a,11,13,14-pentaaza-6,9-methanonaphtho[1,8-ab]heptalen-2-yl)-4-(trifluoromethyl)aniline]	0.57 nM	15.8 nM
Cc1cc(N)c(F)c(-c2nc3c4c(nc(OC[C@@]56CCCN5C[C@H](F)C6)nc4c2F)N2C[C@H]4CC[C@H](N4)[C@H]2CO3)c1C(F)(F)F [Compound 36, 2-fluoro-3-((5aS,6S,9R)-1-fluoro-12-(((2R,7aS)-2-fluorotetrahydro-1H-pyrrolizin-7a(5H)-yl)methoxy)-5a,6,7,8,9,10-hexahydro-5H-4-oxa-3,10a,11,13,14-pentaaza-6,9-methanonaphtho[1,8-ab]heptalen-2-yl)-5-methyl-4-(trifluoromethyl)aniline]	0.98 nM	46.5 nM
C[C@@H]1Oc2nc(-c3cncc4cccc(Cl)c34)c(F)c3nc(OC[C@@]45CCCN4C[C@H](F)C5)nc(c23)N2C[C@H]3CC[C@H](N3)[C@@H]12 [Compound 38, (5S,5aS,6S,9R)-2-(5-Chloroisoquinolin-4-yl)-1-fluoro-12-(((2R,7aS)-2-fluorotetrahydro-1H-pyrrolizin-7a(5H)-yl)methoxy)-5-methyl-5a,6,7,8,9,10-hexahydro-5H-4-oxa-3,10a,11,13,14-pentaaza-6,9-methanonaphtho[1,8-ab]heptalene]	13.9 nM	697 nM
C#Cc1cccc2cncc(-c3nc4c5c(nc(OC[C@@]67CCCN6CC6(CC6(F)F)C7)nc5c3F)N3C[C@H]5CC[C@H](N5)[C@H]3[C@H](C)O4)c12 (stereo partly drawn) [Compound 40, (5S,5aS,6S,9R)-12-(((7a′S)-2,2-difluorodihydro-1′H,3′H-spiro[cyclopropane-1,2′-pyrrolizin]-7a′(5′H)-yl)methoxy)-2-(5-ethynylisoquinolin-4-yl)-1-fluoro-5-methyl-5a,6,7,8,9,10-hexahydro-5H-4-oxa-3,10a,11,13,14-pentaaza-6,9-methanonaphtho[1,8-ab]heptalene]	1.3 nM	86.8 nM
Cc1cc(N)nc(-c2nc3c4c(nc(OC[C@@]56CCCN5CC5(CC5(F)F)C6)nc4c2F)N2C[C@H]4CC[C@H](N4)[C@H]2CO3)c1C(F)(F)F (stereo partly drawn) [Compound 42, 6-((5aS,6S,9R)-12-(((7a'S)-2,2-difluorodihydro-1′H,3′H-spiro[cyclopropane-1,2′-pyrrolizin]-7a′(5′H)-yl)methoxy)-1-fluoro-5a,6,7,8,9,10-hexahydro-5H-4-oxa-3,10a,11,13,14-pentaaza[6,9]methanonaphtho[1,8-ab]heptalen-2-yl)-4-methyl-5-(trifluoromethyl)pyridin-2-amine]	0.47 nM	45.2 nM
Cc1cc(N)nc(-c2nc3c4c(nc(OC[C@@]56CCCN5CC5(CC5(F)F)C6)nc4c2F)N2C[C@H]4CC[C@H](N4)[C@H]2[C@H](C)O3)c1C(F)(F)F (stereo partly drawn) [Compound 47, 6-((5S,5aS,6S,9R)-12-(((7a′S)-2,2-difluorodihydro-1′H,3′H-spiro[cyclopropane-1,2′-pyrrolizin]-7a′(5′H)-yl)methoxy)-1-fluoro-5-methyl-5a,6,7,8,9,10-hexahydro-5H-4-oxa-3,10a,11,13,14-pentaaza[6,9]methanonaphtho[1,8-ab]heptalen-2-yl)-4-methyl-5-(trifluoromethyl)pyridin-2-amine]	0.443 nM	4.43 nM
C#Cc1cccc2cc(O)cc(-c3nc4c5c(nc(OC[C@@]67CCCN6C[C@H](F)C7)nc5c3F)N3C[C@H]5CC[C@H](CN5CCCF)[C@H]3CO4)c12 [Compound 50, 5-Ethynyl-4-((5aS,6R,9R)-1-fluoro-14-(3-fluoropropyl)-12-(((2R,7aS)-2-fluorotetrahydro-1H-pyrrolizin-7a(5H)-yl)methoxy)-5a,6,7,8,9,10-hexahydro-5H-4-oxa-3,10a,11,13,14-pentaaza-6,9-ethanonaphtho[1,8-ab]heptalen-2-yl)naphthalen-2-ol]	0.24 nM	1.69 nM
C#Cc1cccc2cc(O)cc(-c3nc4c5c(nc(OC[C@@]67CCCN6C[C@H](F)C7)nc5c3F)N3C[C@H]5CC[C@H](CN5CC5COC5)[C@H]3CO4)c12 [Compound 51, 5-ethynyl-4-((5aS,6R,9R)-1-fluoro-12-(((2R,7aS)-2-fluorotetrahydro-1H-pyrrolizin-7a(5H)-yl)methoxy)-14-(oxetan-3-ylmethyl)-5a,6,7,8,9,10-hexahydro-5H-4-oxa-3,10a,11,13,14-pentaaza-6,9-ethanonaphtho[1,8-ab]heptalen-2-yl)naphthalen-2-ol]	0.3 nM	5.6 nM
Cc1cc(N)nc(-c2nc3c4c(ncnc4c2F)N2C[C@H]4CC[C@H](N4)[C@H]2CO3)c1C(F)(F)F [Compound 52, 6-((5aS,6S,9R)-1-Fluoro-5a,6,7,8,9,10-hexahydro-5H-4-oxa-3,10a,11,13,14-pentaaza-6,9-methanonaphtho[1,8-ab]heptalen-2-yl)-4-methyl-5-(trifluoromethyl)pyridin-2-amine]	2140 nM	194000 nM
Fc1c(-c2cccc3cccc(Cl)c23)nc2c3c(ncnc13)N1C[C@H]3CC[C@H](N3)[C@H]1CO2 [Compound 53, (5aS,6S,9R)-2-(8-Chloronaphthalen-1-yl)-1-fluoro-5a,6,7,8,9,10-hexahydro-5H-4-oxa-3,10a,11,13,14-pentaaza-6,9-methanonaphtho[1,8-ab]heptalene]	22200 nM	200000 nM
